Assay results: patent US6469209B1, “Acrylate-type fungicide” (Dongbu Hannong Chemical Co., Ltd., priority 1999, dated 2002)
Like-named read-outs stand apart in the source and are kept apart here.

What was measured:
[1] = tested on: Pyricularia oryzae Cavara KJ301 strain; type: in vivo; conditions: sprayed one day after inoculation
Rhizoctonia solani AG-1 = test: Protective effect test on rice sheath blight (RSB); type: in vivo
Puccinia recondita [2] = test: Systemic effect test on wheat leaf rust; type: in vivo
Puccinia recondita [3] = conditions: in vivo
Venturia inaequalis = test: Protective effect test on apple scab (APS); type: in vivo; conditions: apple seedlings treated one day before inoculation
[4] = tested on: Erysiphe graminis f. sp. hordei; test: Systemic effect test on barley powdery mildew; type: in vivo; conditions: soil irrigation (10 mL) 24 hours before inoculation
Phytophthora infestans = type: in vivo; conditions: sprayed on tomato one day before inoculation
Puccinia recondita [5] = test: Protective effect test on wheat leaf rust (WLR); type: in vivo
[6] = tested on: Erysiphe graminis f. sp. hordei; conditions: in vivo
[7] = tested on: Erysiphe graminis f. sp. hordei; test: Protective effect test on barley powdery mildew (BPM); type: in vivo
[8] = tested on: Pyricularia oryzae Cavara KJ301 strain; type: in vivo; conditions: 100 ppm, soil irrigation (10 mL) 24 hours before inoculation
Botrytis cinerea = test: Protective effect test on cucumber gray mould (CGM); type: in vivo
Pythium ultimum = test: Protective effect test on cucumber damping off (CDO); type: in vivo; conditions: soil irrigation (10 mL), disease index after 7 days
Protocol: The potato mixture was inoculated with a plant pat hogen causing cucumber damping off, Pythium ultimum, incubated at 25° C. for 15 days in a growth chamb e r and used as inoculum. Soil (150 mL) prepared by mixing vermiculite and field soil (1:1) was sterilized and mixed with the potato mixture (1 g) to use it as inoculum. After filling the inoculated soil in the pot (diameter 9 cm), five cucumber seeds (house Baekdadagio® cucumber) were sown in the above pot and irrigated with the agricultural fungicidal compositions (10 mL) prepared at the appropriate concentrations. Seven days after the treating with the agricultural fungicidal compositions, a degree of the disease induction was examined based upon criteria for determining the disease index, and control efficacy was determined according to the above examination. The criteria was listed in the following. Criteria 4: seeds don't germinate due to disease outbreak. 3: a young seedling dies in the middle of emergence. 2: ground surface is narrowed due to disease outbreak. 1: growth is poor due to disease outbreak of partial roots. 0: healthy plant […] For only cucumber damping off, it was examined according to the above-mentioned separate criteria.

Bipolaris maydis = test: Protective effect test on southern corn leaf blight (CLB); type: in vivo; conditions: corn treated one day before inoculation
Protocol: A plant pathogen, Bipolaris maydis, was inoculated on the Difco Lima Bean Agar (10 g/L) medium containing 10 g/L dextrose, and incubated at 24° C. with and without fluorescent light for 12 hours each time for 7 days in a growth chamber. After forming spores, the conidiospore was harvested in Tween-20 solution (250 ppm), adjusted at the concentration of 5×10^5 spores/ml and used as inoculum. The southern corn (golden crossbantam 70) for test was grown to be at 4 or 5-leaf stage in a greenhouse. One day after the treating with the agricultural fungicidal compositions, the inoculum was sprayed an young seedlings of the corn, and incubated at 27° C. and 100% relative humidity for 24 hours in a dew chamber to infiltrate the pathogen. The young seedling were incubated at 27° C. and 90% relative humidity for 3 days in a growth chamber to induce the disease. A ratio of diseased areas to total areas of the corn leaves was examined according to the criteria for determining a degree of disease induction.
In the above experiment 2, control value of the compound on the tested pathogens was calculated according to the following mathematical formula 1, and the results were shown in Table 2. For only cucumber damping off, it was examined according to the above-mentioned separate criteria.
Control value(%)=(1—the ratio of diseased area in the treated plant/the ratio of diseased area in the untreated plant)×100

[9] = tested on: Colletotrichum lagenarium; test: Protective effect test on cucumber anthracnose (CUA); type: in vivo; conditions: cucumber treated one day before inoculation
Sphaerotheca fuliginea = test: Protective effect test on cucumber powdery mildew (CPM); type: in vivo; conditions: sprayed on cucumber one day before inoculation
Protocol: A plant pathogen, Sphaerotheca fuliginea, was prepared by collecting the diseased leaves of cucumber grown in a vinylhouse, and its spores were suspended in sterilized water. The concentration of the pathogenic spores was adjusted to 10^5 spores/mL and used as inoculum. After a cucumber seed (house ‘Baekdadagi®’ cucumber) was sown in a small pot (diameter 6.5 cm), it was grown in a greenhouse for two weeks and young seedlings with the first true completely open leaf were used for test. After the young seedlings of the cucumber in the small pots were sprayed with agricultural fungicidal compositions prepared at the appropriate concentrations, they were left for 1 day in a greenhouse to dry the fungicidal compositions. The young seedlings of cucumber were inoculated with the prepared pathogenic spores of cucumber powdery mildew by spraying and incubated for 10 days in a green house to induce the disease. A ratio of the diseased areas to total areas of the first true completely open leaves was determined according to the criteria for determining a degree of disease induction. […] For only cucumber damping off, it was examined according to the above-mentioned separate criteria.

[10] = tested on: Pyricularia oryzae Cavara KJ301 strain; type: in vivo; conditions: sprayed on rice one day before inoculation

CNC(=O)/C(=N/OC)c1c(C)cccc1COc1ccccc1C [The compound of formula 1, N-methyl E-2-((2-methylphenyl)oxymethyl)-6-methylphenylglyoxylamide O-methyl oxime]
Control value (%) RCB C.E. (curative effect) ([1]; 10 ppm): 84% | Control value (%) RSB (Rhizoctonia solani AG-1; 2 ppm, sprayed on rice one day before inoculation): 21% | Control value (%) RSB (Rhizoctonia solani AG-1; 10 ppm, sprayed on rice one day before inoculation): 53% | Control value (%) WLB S.E. (systemic effect) (Puccinia recondita [2]; 2 ppm, soil irrigation (10 mL) 24 hours before inoculation): 43% | Control value (%) WLB S.E. (systemic effect) (Puccinia recondita [2]; 10 ppm, soil irrigation (10 mL) 24 hours before inoculation): 100% | Control value (%) WLB S.E. (systemic effect) (Puccinia recondita [2]; 100 ppm, soil irrigation (10 mL) 24 hours before inoculation): 100% | Control value (%) WLB C.E. (curative effect) (Puccinia recondita [3]): 100% | Control value (%) APS (Venturia inaequalis; 1 ppm): 60% | Control value (%) APS (Venturia inaequalis; 10 ppm): 92% | Control value (%) APS (Venturia inaequalis; 100 ppm): 100% | Control value (%) BPM S.E. (systemic effect) ([4]; 2 ppm): 67% | Control value (%) BPM S.E. (systemic effect) ([4]; 10 ppm): 80% | Control value (%) BPM S.E. (systemic effect) ([4]; 100 ppm): 100% | Control value (%) TLB (Phytophthora infestans; 2 ppm): 79% | Control value (%) TLB (Phytophthora infestans; 10 ppm): 89% | Control value (%) WLR (Puccinia recondita [5]; 2 ppm, sprayed on wheat one day before inoculation): 99% | Control value (%) WLR (Puccinia recondita [5]; 10 ppm, sprayed on wheat one day before inoculation): 100% | Control value (%) BPM C.E. (curative effect) [6]: 100% | Control value (%) BPM ([7]; 2 ppm, sprayed on barley one day before inoculation): 98% | Control value (%) BPM ([7]; 10 ppm, sprayed on barley one day before inoculation): 100% | Control value (%) RCB S.E. (systemic effect) [8]: 56% | Control value (%) CGM (Botrytis cinerea; 2 ppm, sprayed on cucumber one day before inoculation): 30% | Control value (%) CGM (Botrytis cinerea; 10 ppm, sprayed on cucumber one day before inoculation): 40% | Control value (%) CDO (Pythium ultimum; 1 ppm): 30% | Control value (%) CDO (Pythium ultimum; 10 ppm): 100% | Control value (%) CDO (Pythium ultimum; 100 ppm): 100% | Control value (%) CLB (Bipolaris maydis; 10 ppm): 80% | Control value (%) CLB (Bipolaris maydis; 100 ppm): 90% | Control value (%) CUA ([9]; 1 ppm): 80% | Control value (%) CUA ([9]; 10 ppm): 100% | Control value (%) CUA ([9]; 100 ppm): 100% | Control value (%) CPM (Sphaerotheca fuliginea; 1 ppm): 80% | Control value (%) CPM (Sphaerotheca fuliginea; 10 ppm): 100% | Control value (%) CPM (Sphaerotheca fuliginea; 100 ppm): 100% | Control value (%) RCB ([10]; 2 ppm): 100% | Control value (%) RCB ([10]; 10 ppm): 100%

Mancozeb [L, reference compound]
Control value (%) APS (Venturia inaequalis; 100 ppm): 82% | Control value (%) CLB (Bipolaris maydis; 100 ppm): 80% | Control value (%) CUA ([9]; 100 ppm): 85%

CC12CC1(C)C(=O)N(c1cc(Cl)cc(Cl)c1)C2=O (stereo not shown) [C, Procymidone, reference compound]
Control value (%) CGM (Botrytis cinerea; in vivo): 40%

CCCCNC(=O)n1c(NC(=O)OC)nc2ccccc21 [K, Benomyl, reference compound]
Control value (%) APS (Venturia inaequalis; 10 ppm): 85% | Control value (%) CDO (Pythium ultimum; 10 ppm): 20% | Control value (%) CUA ([9]; 10 ppm): 65% | Control value (%) CPM (Sphaerotheca fuliginea; 10 ppm): 85%

Cc1cccc2sc3nncn3c12 [A, Tricyclazole]
Control value (%) RCB C.E. (curative effect) ([1]; 100 ppm): 0% | Control value (%) RCB S.E. (systemic effect) [8]: 87% | Control value (%) RCB ([10]; 50 ppm): 90%

CO/N=C(/C(=O)OC)c1ccccc1COc1ccccc1C [F, Kresoxim methyl, reference compound]
Control value (%) RCB C.E. (curative effect) ([1]; 10 ppm): 39% | Control value (%) RSB (Rhizoctonia solani AG-1; in vivo): 5% | Control value (%) WLB S.E. (systemic effect) (Puccinia recondita [2]; in vivo): 0% | Control value (%) WLB C.E. (curative effect) (Puccinia recondita [3]): 0% | Control value (%) TLB (Phytophthora infestans; 10 ppm): 57% | Control value (%) WLR (Puccinia recondita [5]; in vivo): 93% | Control value (%) BPM C.E. (curative effect) [6]: 50% | Control value (%) BPM ([7]; in vivo): 94% | Control value (%) RCB S.E. (systemic effect) [8]: 0% | Control value (%) CGM (Botrytis cinerea; in vivo): 10% | Control value (%) RCB ([10]; 10 ppm): 98%

OCC1=C[C@H](N[C@H]2C[C@H](CO)[C@@H](O[C@@H]3O[C@H](CO)[C@@H](O)[C@H](O)[C@H]3O)[C@H](O)[C@H]2O)[C@H](O)[C@@H](O)[C@@H]1O [B, Validamycin, reference compound]
Control value (%) RSB (Rhizoctonia solani AG-1; in vivo): 50%

COc1ccc(C(=CC(=O)N2CCOCC2)c2ccc(Cl)cc2)cc1OC [D, Dimethomotph, reference compound]
Control value (%) TLB (Phytophthora infestans; 10 ppm): 80%

C[Si](Cn1cncn1)(c1ccc(F)cc1)c1ccc(F)cc1 [E, Flusilazole, reference compound]
Control value (%) WLB C.E. (curative effect) (Puccinia recondita [3]): 97% | Control value (%) WLR (Puccinia recondita [5]; in vivo): 85% | Control value (%) BPM C.E. (curative effect) [6]: 81% | Control value (%) BPM ([7]; in vivo): 85%
